Experimental data published in publication PMC7281206, “Cysteine Cathepsins Inhibition Affects Their Expression and Human Renal Cancer Cell Phenotype” (Cancers, 2020).
“Also recorded” adds a separate entry of the source. *: point of attachment. CH2F = FC*

How the values were obtained:
[1] = system: human recombinant CtsB; assay: Fluorescent protease activity assay, recombinant CtsB; assay type: biochemical; settings: 20 nM CtsB, 50 μM Ac-PLVQ-AMC, inhibitor 2 μM; 0.1 M sodium acetic buffer pH 4.6, 12 min, Ex/Em 353/442 nm
Protocol: Ac-PLVE-FMK and Ac-VLPE-FMK inhibitory properties were evaluated against human recombinant CtsL and B. These recombinant enzymes were expressed in E. coli via plasmid transformation and further purification, using nickel-nitrilotriacetic acid (Ni-NTA) sepharose. Gel zymography assay was used to provide a preliminary evaluation of the ability of these recombinant proteins to degrade the gelatin substrate previously embedded in the gel (Supplementary Figure S1). Following Coomassie staining, the Cts were detectable as single bands. As expected, a translucent area was evident, due to the substrate digestion in the proximity of the proteins. Then, the recombinant proteins were tested for their ability to digest the Triticain-α substrate Ac-PLVQ via fluorescent protease activity assay, previously optimized by our group. This probe was conjugated with the fluorogenic chromophore 7-amino-4-methylcoumarin (Ac-PLVQ-AMC). After proteolytic cleavage, it emits a detectable fluorescent signal.
Total RNA extract from retinoblastoma […] cells was used to obtain cDNA. A pair of oligonucleotides ([…] and […]) was used for the amplification of DNA fragment containing CtsB, the product of which was ligated into pET15b (Merck Millipore, Billerica, MA, USA) using NdeI and XhoI. DNA fragment containing CtsL was amplified using a pair of oligonucleotides ([…] and […]) and ligated into pET28a (+) (Merck Millipore, Billerica, MA, USA) using NheI and HindIII. […]
The activity of recombinant CtsL and B was detected by the hydrolysis of the fluorogenic substrate Ac-Pro-Leu-Val-Gln- 7-amino-4-methylcoumarin (AMC) (Pepmic Suzhou Jiangsu, China). […] The substrate was added to a final concentration of 50 μM, and its hydrolysis was continuously measured for 12 min using a CLARIOstar® Plus plate reader (BMG Labtech Ortenberg Baden-Württemberg, Germany) at excitation and emission wavelengths of 353 and 442 nm, respectively.

[2] = system: LAMP-1 in 769-P cells; assay: LAMP-1 protein expression (western blot), 769-P; assay type: cell-based, human; settings: 20 μM, 24, 48, 72 h
Protocol: Figure 7 Effect of the peptides on LAMP-1 protein expression: (a) Western blotting analysis of LAMP-1 after treatment with PLVE and VLPE (20 μM) for 24, 48, and 72 h in 769-P cells. (b) Confocal microscopy evaluation of LAMP-1 expression after 48 and 72 h of treatment with PLVE and VLPE (20 μM) in 769-P cells. (c) Western blotting analysis of LAMP-1 after treatment with PLVE and VLPE (20 μM) for 24, 48, and 72 h in A498 cells. (d) Confocal microscopy evaluation of LAMP-1 expression after 48 and 72 h of treatment with PLVE and VLPE (20 μM) in A498 cells. Data are represented as mean ± SD of at least three replicates. Significance was calculated through one-way ANOVA followed by Dunnet’s test. * = p < 0.05, ** = p < 0.01, *** = p < 0.001. Cells were seeded in RPMI containing 10% FBS and cultured for 24 h. Next, 30 µM of inhibitors were added to the culture medium and incubated for 24, 48, and 72 h. Control cells were treated with 0.01% DMSO. At all time points the samples were lysed in 50 mM Tri-HCl (pH 8.0), 100 mM NaCl, 0.5% NP-40, 1% Triton X-100, 1× protease inhibitor cocktail (ThermoFisher, Waltham, MA, USA). The 50 µg of protein lysates were separated by electrophoresis on a 12% SDS-PAGE gel and transferred to the PFDF membranes. […] After an additional wash (three times with PBS), reactive bands were detected by chemiluminescence (Bio-Rad, Irvine, CA, USA). […]

Ac-PLVE-CH2F [Ac-PLVE-FMK]
Inhibition of Ac-PLVQ-AMC cleavage (fluorescent signal) [1]: the intensity of the fluorescent signal was significantly affected
LAMP-1 protein expression [2]: significantly increased the expression of this lysosomal biomarker at all the considered time points, reaching significant peaks at 48 h of treatment

Ac-VLPE-CH2F [Ac-VLPE-FMK]
Inhibition of Ac-PLVQ-AMC cleavage (fluorescent signal) [1]: the intensity of the fluorescent signal was significantly affected
LAMP-1 protein expression [2]: significantly increased the expression of this lysosomal biomarker at all the considered time points, reaching significant peaks at 48 h of treatment; also recorded: more efficient than Ac-PLVE-FMK in increasing the expression of LAMP-1
